Source: publication PMC9321647, “Curcumin-Based β-Diketo Ligands for Ga^3+: Thermodynamic Investigation of Potential Metal-Based Drugs” (Pharmaceuticals, 2022)
Read-outs that look alike come from different tables or passages of the source. Marks after values point to notes of the source that are not given here.

Assays:
[1] = tested on: HCT116 colon carcinoma cells; test: MTT cell viability assay; type: cell-based, Human; settings: Homo sapiens, HCT-116, HCT116, 48 h of treatment, mean
Experimental: Human colorectal carcinoma HCT116 cells (#91091005, ECACC) were grown in an IMDM medium (Biowest) supplemented with 2 mM glutamine, 100 IU/mL penicillin, 100 μg/mL streptomycin and 10% FBS (Gibco). The cell lines were grown at 37 °C in a humidified incubator containing 5% CO2. The cells were verified to be mycoplasma-free and passaged < 3 months. The inhibition of cell proliferation was measured by colorimetric 3-(4,5-dimethylthiazol-2-yl)-2,5-diphenyltetrazolium bromide (MTT) assay. GI50 concentrations were determined using the CompuSyn software version 1.0 (ComboSyn, Inc., Paramus, NJ USA) (free download via www.combosyn.com, accessed on 30 May 2022), and statistical analyses were performed using the GraphPad PRISM software (version 6.01 for Windows, GraphPad Software, San Diego, California USA GraphPad Prism) using unpaired t-test. Data were considered to be statistically significant if p < 0.05 (*), p < 0.01 (**), p < 0.001(***) and p < 0.0001 (****).

[2] = Spectrophotometric pH titrations of ligands (protonation constants, pKa); type: physicochemical; settings: for logβ011 overall protonation constant / logβ012 overall protonation constant / logβ013 overall protonation constant / logβ014 overall protonation constant: HypSpec, spectrophotometric data; for pKa: aqueous solution (methanol stock diluted in water); for prevailing charge form at physiological pH (7.4): pH 7.4, species distribution
Experimental: (§1) UV–visible spectra were recorded with a JASCO V-570 UV/Vis/NIR spectrophotometer at 298 K in the 250–600 nm spectral range employing quartz cells (1 cm optical path). To perform spectrophotometric titrations, ligands (denoted generally as L in the following) were dissolved in methanol to give a mother solution (2.50 mM), that was then diluted in water in order to obtain a final concentration of 50 μM. The metal/ligand (M:L) solutions were obtained by adding appropriate quantities of Ga(NO3)3 as methanol solutions (5–10 mM) in order to obtain the metal-to-ligand 1:1 molar ratio (L = 50 μM and V = 25 mL). For both L and M:L systems, pH (initial value of about 5) was varied by adding small amounts (<1 μL) of concentrated NaOH (4 M) up to ca. pH 11, thus to consider volume variations negligible. To evaluate the complexation ratio, constant additions of the M solution (10 µL each time, M = 10^–2 M) were dropped into the ligand solution (V = 25 mL, L = 50 μM) using a micropipette in order to reach different M:L molar ratios. A constant ionic strength (NaNO3, 0.1 M) was maintained in all experiments. Spectrophotometric investigations of iron(III) systems were performed in the same conditions; the Fe^3+ solution was freshly prepared in methanol starting from Fe(NO3)3·9H2O. The overall protonation constants (logβqr) and the overall stability constants of metal complexes (logβpqr) were evaluated from spectrophotometric data. The stability constants (βpqr), defined by the following equations:(3) pM^m++qL^l^−+rH^+⇌MpLqHr(mp−lq+r) (4) βpqr=[MpLqHr(mp−lq+r)]/[M^m+]^p·[L^l−]^q·[H^+]^r where L is the ligand in the completely dissociated form and H is proton, were refined using least-squares calculation in HypSpec. The results of least-squares calculation include the standard deviations and correlation coefficients of the refined parameters. The quantities are obtained by performing error propagation calculation from the experimental errors onto the parameters. The stability constant refinement furnishes least-squares estimates of the standard deviation, σ, of the stability constant β. The error on logβ is calculated as follows: σ(logβ) = [log(β + σ) − log(β − σ)]/2.

[3] = Spectrophotometric pH-metric titrations of Ga^3+:ligand systems (stability constants, pGa, speciation); type: physicochemical; settings: for logK11 apparent formation constant (Ga^3+, M:L 1:1) / logK12 apparent formation constant (Ga^3+, M:L 1:2) / logK13 apparent formation constant (Ga^3+, M:L 1:3): estimated from logβMLH; for Prevailing Species (pH 5.5) / Prevailing Species (pH 7.4): Ga^3+ complex species; for Prevailing Species (pH 7.4): ** possible formation of gallium hydroxide species; for pGa (−log[Ga^3+]free): [Ga^3+]total = 1 μM, [L]total = 10 μM, pH 7.4, 25 °C
Experimental: as §1
Hydroxide species, such as [Ga(OH)2]^+, were taken into account for calculations. The hydrolysis constants for Ga^3+ are as follows: logβ1,1,0 = −3.93; logβ2,1,0 = −7.73; logβ3,1,0 = −12.38; logβ4,1,0 = −15.96; logβ32,13,0 = −66.3; logβ3,1,0(s) = −3.54 [43]; pGa is defined as (−log[Ga^3+]free) and is calculated at specific conditions (Ga^3+total = 1 μM, Ltotal = 10 μM, pH 7.4, 25 °C). For the calculation of the iron(III) overall stability constants, the presence of [Fe(OH)]^2+, [Fe(OH)2]^+ and [Fe(OH)3] species was taken into account.

[4] = Keto-enol/diketo tautomer amounts by 1H NMR; type: physicochemical; settings: molar percentage, MeOD-d4, 298 K; for KE (%) amount of keto–enol form: for 2 includes KE form of the Z isomer (6%)
Experimental: NMR spectra were recorded by means of a Bruker Biospin FT-NMR AVANCE III HD (600 MHz) spectrometer equipped with a CryoProbe BBO H&F 5 mm in inverse detection. The nominal frequencies were 150.90 MHz for ^13C and 600.13 MHz for ^1H, respectively. For each sample, 1–5 mg were weighed and diluted up to 0.6 mL with a proper solvent in a 5 mm NMR tube; 90° pulse was calibrated for each sample, and standard NMR parameters were used to achieve quantitative results (relaxation delay, 10 s). Proton and carbon chemical shifts are given in parts per million (ppm) versus external TMS and were determined by reference to the solvent residual signals. Typical 2D homo- and heteronuclear techniques were used for assignment, i.e., ^1H,^1H COSY, ^1H,^13C HSQC, ^1H,^13C HMBC. NMR investigations of Ga^3+:L systems were performed in MeOD-d4 by adding small amounts of a Ga(NO3)3 solution (10 μL each) to 1 mM ligand solution (0.6 mL) until reaching the desired metal-to-ligand molar ratio. The complexation reaction is fast, and spectra were registered few minutes after the addition. Two-dimensional ^1H,^13C heteronuclear multiple bond correlation (HMBC) experiments (hmbcgpndqf in Bruker library) were performed via heteronuclear zero and double quantum coherence, optimized on long-range couplings (^3/4JHC = 8 Hz), with no decoupling during acquisition, and gradient pulses were used for selection. The relative percentages of the isomeric forms were estimated on the basis of the NMR data. Particularly, ^1H NMR spectra were acquired in quantitative conditions being D1 (relaxation delay) at least five times the T1 of the slowest relaxing signal of interest. The raw data were Fourier-transformed, and then the processing was performed by zero filling (SI = TD), line broadening (lb 0.3 Hz), accurate phasing and correcting the baseline. The most isolated signals were selected for integration, i.e., the vinyl protons (H-3 and H-4), and an average of the integrated area (A) of H-3 and H-4 was used for relative quantitation, according to the following equation: %Tautomeri=(A(H−3)i+(A(H−4)i)/2/∑i(A(H−3)i+(A(H−4)i)/2×100

[5] = Kinetic stability of ligands in simulated physiological conditions (UV-Vis); type: physicochemical; settings: for Stability: percentage of the residual ligand after 4 h: PBS, pH 7.4, 37 °C in darkness; for Stability ranking (residual ligand after 4 h): rank among the 7 ligands, 1 = most stable
Experimental: The chemical stability of ligands and metal complexes at the M:L 1:L molar ratio at 37 °C in darkness was evaluated by UV−Vis spectroscopy as a change in absorbance in the 250−600 nm range over an overall period of 8 h. Solutions (5.0 × 10^–5 mol L^–1) of the ligands were prepared in 0.1 mol L^–1 phosphate-buffered solution (PBS) at pH 7.4. Spectra were recorded every 30 min. All profiles were linearized as the hyperbolic function defined by Equation (2), which represents an empirical model that describes drug decomposition or release well [42]:(2) t/f%=at+b where f% is the percentage of the residual compound at time t (min) referred to the starting concentration at time zero determined by reading the absorbance at λmax.

[6] = 298 K, calculated from logβ values, * = keto–enol moiety dissociation, read-out: pKa1
[7] = 298 K, calculated from logβ values, * = keto–enol moiety dissociation, read-out: pKa2
[8] = 298 K, calculated from logβ values, * = keto–enol moiety dissociation, read-out: pKa3
[9] = 298 K, calculated from logβ values, read-out: pKa4
[10] = 298 K, calculated from logβ values, * = keto–enol moiety dissociation

| Molecule | logβ011 overall protonation constant ([2]; 298 K) | pKa [2, 6] | log β 110 overall stability constant (Ga^3+) ([3]; 298 K, HypSpec) | log β 120 overall stability constant (Ga^3+) ([3]; 298 K, HypSpec) | log β 130 overall stability constant (Ga^3+) ([3]; 298 K, HypSpec) | logK11 apparent formation constant (Ga^3+, M:L 1:1) ([3]; 298 K) | logK12 apparent formation constant (Ga^3+, M:L 1:2) ([3]; 298 K) | logK13 apparent formation constant (Ga^3+, M:L 1:3) ([3]; 298 K) | Prevailing Species (pH 5.5) [3] | Prevailing Species (pH 7.4) [3] | pGa (−log[Ga^3+]free) [3] | KK (%) amount of diketo form [4] [%] | KE (%) amount of keto–enol form [4] | Stability: percentage of the residual ligand after 4 h [5] [%] | Stability ranking (residual ligand after 4 h) [5] | logβ012 overall protonation constant ([2]; 298 K) | logβ013 overall protonation constant ([2]; 298 K) | logβ014 overall protonation constant ([2]; 298 K) | pKa [2, 7] | pKa [2, 8] | also measured |
| --- | --- | --- | --- | --- | --- | --- | --- | --- | --- | --- | --- | --- | --- | --- | --- | --- | --- | --- | --- | --- | --- |
| COc1cc(/C=C/C(=O)CC(=O)/C=C/c2ccc(O)c(OC)c2)ccc1O [CUR, Curcumin] | – | – | – | – | – | – | – | – | – | – | – | – | – | – | – | – | – | – | – | – | GI50 [1]: 12.9 µM |
| COc1cc(/C=C/C(O)=C/C(C)=O)ccc1OCCCBr [Compound 2, (3Z,5E)-6-[4-(3-bromopropoxy)-3-methoxyphenyl]-4-hydroxyhexa-3,5-dien-2-one] | 10.903 (8) | 10.9 | 8.129 (9) | 15.185 (4) | 20.45 (3) | 8.129 (9) | 15.185 | 20.45 | [Ga(L)3] | [Ga(L)3] | 13.1 | 12 | 88 * % | 83 | 1 | – | – | – | – | – | – |
| O=C(O)CCC(C(=O)/C=C/c1ccc(O)cc1)C(=O)/C=C/c1ccc(O)cc1 [Compound 6, (6E)-7-(4-hydroxyphenyl)-4-[(2E)-3-(4-hydroxyphenyl)prop-2-enoyl]-5-oxohept-6-enoic acid] | 11.42 (2) | ~5 | – | – | – | 6.67 | – | – | – | – | 14.0 | 75 | 25% | 73 | 4 | 21.12 (6) | 29.76 (7) | 34.62 (5) | 8.64 | 9.7 | pKa [2, 9]: 11.4; prevailing charge form at physiological pH (7.4) [2]: negatively charged; log β 112 overall stability constant (Ga^3+) ([3]; 298 K, HypSpec): 27.79 (5); log β 113 overall stability constant (Ga^3+) ([3]; 298 K, HypSpec): 34.09 (5) |
| COc1cc(/C=C/C(=O)C(CCC(=O)O)C(=O)/C=C/c2ccc(O)c(OC)c2)ccc1O [Compound 7, (6E)-7-(3-methoxy-4-hydroxyphenyl)-4-[(2E)-3-(3-methoxy-4-hydroxyphenyl)prop-2-enoyl]-5-oxohept-6-enoic acid] | 12.22 (2) | ~5 | – | – | – | 6.68 | – | – | [Ga(H2L)2]^+ | [Ga(H2L)2]^+ ** | 15.3 | 75 | 25% | 79 | 2 | 21.61 (5) | 29.98 (4) | 34.92 (9) | 8.37 | 9.39 | pKa [2, 9]: 12.2; prevailing charge form at physiological pH (7.4) [2]: negatively charged; log β 112 overall stability constant (Ga^3+) ([3]; 298 K, HypSpec): 28.29 (5); log β 113 overall stability constant (Ga^3+) ([3]; 298 K, HypSpec): 36.51 (6) |
| (3Z,5E)-4-hydroxy-6-(3-methoxy-4-methylphenyl)hexa-3,5-dien-2-one [Compound 1] | 10.212 (2) | – | 11.78 (4) | 20.30 (5) | 28.37 (7) | 7.38 (3) | 14.35 (3) | 19.1 (4) | [Ga(HL)3] | [Ga(L)3]^3− | 19.0 | 4 | 96% | 77 | 3 | 18.509 (3) | – | – | – | – | pKa1 [2, 10]: 8.297 (5); pKa2 [2, 10]: 10.212 (2) *; log β 111 overall stability constant (Ga^3+) ([3]; 298 K, HypSpec): 17.59 (3); log β 122 overall stability constant (Ga^3+) ([3]; 298 K, HypSpec): 34.77(3); log β 133 overall stability constant (Ga^3+) ([3]; 298 K, HypSpec): 49.7 (4) |
